In ChEMBL document CHEMBL1201862, “PubChem BioAssay data set” (2004):
The source made the active and inactive calls.

Legend:
[1] = test system: HeLa; experiment: ATP-based viability loss in HeLa cells – cell-based, CellTiter-Glo luminescence, cherry-pick samples, cytotoxicity control for MITF activator project, dose response (AID 540259); assay type: functional; settings: Homo sapiens
[2] = target: T1, Cytochrome P450 1A2 (Homo sapiens, UniProt P05177);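 also: PubChem cytochrome P450 panel assay, CYP1A2 panel member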
T1 sequence (P05177 whole entry): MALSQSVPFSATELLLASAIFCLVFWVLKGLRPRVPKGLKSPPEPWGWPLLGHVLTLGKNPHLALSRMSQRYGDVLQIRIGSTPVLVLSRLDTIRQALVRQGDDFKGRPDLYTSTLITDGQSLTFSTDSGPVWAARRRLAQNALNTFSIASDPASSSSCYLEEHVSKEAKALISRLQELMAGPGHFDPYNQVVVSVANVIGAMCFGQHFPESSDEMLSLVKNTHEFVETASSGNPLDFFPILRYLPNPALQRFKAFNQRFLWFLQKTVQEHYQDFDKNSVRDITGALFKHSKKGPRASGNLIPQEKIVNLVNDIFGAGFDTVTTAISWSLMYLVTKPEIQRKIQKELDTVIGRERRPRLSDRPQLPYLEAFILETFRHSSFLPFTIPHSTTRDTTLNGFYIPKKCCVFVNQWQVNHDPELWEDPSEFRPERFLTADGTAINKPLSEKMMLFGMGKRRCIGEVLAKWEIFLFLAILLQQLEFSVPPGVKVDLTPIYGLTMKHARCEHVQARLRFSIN

[3] = test system: Escherichia coli; experiment: microbe, parasite or virus in culture
[4] = Luminescence Cell-Based Dose Response HTS to Identify Inhibitors of 5'UTR Stem-Loop Driven Prion Protein mRNA Translation in H4 Neuroglioblastoma Cells. [Related pubchem assays: 1827 (Project Summary), 1813 (Primary HTS)]; assay type: functional
[5] = Trypanosoma cruzi growth suppression in host cells – NIH3T3 host cells, beta-gal luminescence, confirmation (AID 2044); assay type: functional, cell-based;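 also: intracellular parasites grown in NIH/3T3 mouse fibroblasts as host cells; luminescent beta-galactosidase reporter signal from transgenic T. cruzi replicating inside host cells; inhibitors lower the luminescence signal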
[6] = test system: Vero; experiment: cells; assay type: functional, cell-based; settings: Chlorocebus sabaeus
[7] = cells
[8] = target: Phospholipase A2 (Homo sapiens, UniProt P04054); assay type: functional;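 also: confirmatory dose-response counterscreen on phospholipase A2, testing hits that came from an ultra-high-throughput screen for ATG4B inhibitors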
Phospholipase A2, sequence (P04054 whole entry): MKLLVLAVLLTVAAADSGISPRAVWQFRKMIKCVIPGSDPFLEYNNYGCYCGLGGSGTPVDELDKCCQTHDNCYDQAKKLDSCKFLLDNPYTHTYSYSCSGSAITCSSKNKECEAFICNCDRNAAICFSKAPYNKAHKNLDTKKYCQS

[9] = viability of uninfected HEp-2 cells – cell-based, HTS, cytotoxicity control for RSV inhibitor project, dose response (AID 2410); assay type: functional; settings: human respiratory syncytial virus
[10] = NIH3T3 cell viability loss – ATP luminescence, mouse fibroblasts, counter-screen, dose response (AID 2010); assay type: functional, cell-based;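 also: cells exposed to compound for about 90 hours before reading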
[11] = alpha-synuclein stem-loop luciferase translation blockers – H4 neuroglioma cells, luminescence, confirmation (AID 1988); assay type: functional, cell-based
[12] = luciferase reporter signal suppression in cells – H4 neuroglioma cells, luminescence, dose response (AID 1990); assay type: functional, cell-based
[13] = target: T2, Cysteine protease ATG4B (Homo sapiens, UniProt Q9Y4P1); assay type: functional;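 also: Fluorescence-based dose-response confirmation assay measuring inhibition of ATG4B activity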
T2 sequence (Q9Y4P1 whole entry): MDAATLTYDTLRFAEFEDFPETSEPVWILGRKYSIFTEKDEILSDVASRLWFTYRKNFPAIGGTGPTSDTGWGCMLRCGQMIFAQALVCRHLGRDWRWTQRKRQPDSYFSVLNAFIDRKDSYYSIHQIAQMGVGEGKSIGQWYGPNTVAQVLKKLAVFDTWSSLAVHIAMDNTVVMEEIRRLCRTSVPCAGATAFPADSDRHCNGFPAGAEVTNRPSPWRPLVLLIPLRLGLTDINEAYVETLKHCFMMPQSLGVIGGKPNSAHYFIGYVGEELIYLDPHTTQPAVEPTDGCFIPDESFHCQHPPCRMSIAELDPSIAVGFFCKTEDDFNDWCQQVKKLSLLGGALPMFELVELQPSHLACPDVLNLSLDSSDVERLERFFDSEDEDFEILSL

[14] = target: Melanocortin receptor 4 (Homo sapiens, UniProt P32245); assay type: functional, cell-based;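 also: Cell-based assay with luminescence read-out, confirmatory dose-response testing for agonist activity of biased ligands at MC4R; human U2OS cells with tagged receptor and beta-arrestin; potency of agonists that increase receptor coupling to beta-arrestin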
Melanocortin receptor 4, sequence (P32245 whole entry): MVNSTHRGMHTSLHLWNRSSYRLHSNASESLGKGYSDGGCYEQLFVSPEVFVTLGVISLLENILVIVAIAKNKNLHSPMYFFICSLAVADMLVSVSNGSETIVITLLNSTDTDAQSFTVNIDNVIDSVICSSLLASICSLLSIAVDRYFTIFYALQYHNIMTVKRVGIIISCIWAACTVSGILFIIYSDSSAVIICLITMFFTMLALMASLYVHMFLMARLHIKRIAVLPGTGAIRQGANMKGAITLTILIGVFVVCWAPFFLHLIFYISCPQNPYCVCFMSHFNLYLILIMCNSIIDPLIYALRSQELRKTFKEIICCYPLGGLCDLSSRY

[15] = target: Protein Wnt-3a (Mus musculus, UniProt P27467); experiment: antagonism of Wnt3a pathway luciferase reporter – Wnt-LIGHT cells, luminescence, selectivity assay for Gli-SUFU antagonist project, dose response (AID 651570); assay type: functional; settings: read-out: IC50_Mean;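 also: Wnt-LIGHT reporter cells stimulated with conditioned medium from Wnt3a-producing cells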
Protein Wnt-3a, sequence (P27467 whole entry): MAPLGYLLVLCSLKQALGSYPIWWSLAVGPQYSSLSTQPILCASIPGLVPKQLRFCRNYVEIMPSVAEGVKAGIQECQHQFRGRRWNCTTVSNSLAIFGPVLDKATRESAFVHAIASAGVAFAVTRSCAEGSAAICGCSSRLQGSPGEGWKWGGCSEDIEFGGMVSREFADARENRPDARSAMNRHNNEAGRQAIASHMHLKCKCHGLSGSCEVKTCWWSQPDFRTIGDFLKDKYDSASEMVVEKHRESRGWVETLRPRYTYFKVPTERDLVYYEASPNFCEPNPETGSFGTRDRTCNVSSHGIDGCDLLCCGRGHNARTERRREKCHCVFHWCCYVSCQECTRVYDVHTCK

[16] = target: Voltage-gated inwardly rectifying potassium channel KCNH2 (Homo sapiens, UniProt Q12809); settings: Potency;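 also: confirmatory quantitative high-throughput screen measuring inhibition of hERG channel activity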
Voltage-gated inwardly rectifying potassium channel KCNH2, sequence (Q12809 whole entry): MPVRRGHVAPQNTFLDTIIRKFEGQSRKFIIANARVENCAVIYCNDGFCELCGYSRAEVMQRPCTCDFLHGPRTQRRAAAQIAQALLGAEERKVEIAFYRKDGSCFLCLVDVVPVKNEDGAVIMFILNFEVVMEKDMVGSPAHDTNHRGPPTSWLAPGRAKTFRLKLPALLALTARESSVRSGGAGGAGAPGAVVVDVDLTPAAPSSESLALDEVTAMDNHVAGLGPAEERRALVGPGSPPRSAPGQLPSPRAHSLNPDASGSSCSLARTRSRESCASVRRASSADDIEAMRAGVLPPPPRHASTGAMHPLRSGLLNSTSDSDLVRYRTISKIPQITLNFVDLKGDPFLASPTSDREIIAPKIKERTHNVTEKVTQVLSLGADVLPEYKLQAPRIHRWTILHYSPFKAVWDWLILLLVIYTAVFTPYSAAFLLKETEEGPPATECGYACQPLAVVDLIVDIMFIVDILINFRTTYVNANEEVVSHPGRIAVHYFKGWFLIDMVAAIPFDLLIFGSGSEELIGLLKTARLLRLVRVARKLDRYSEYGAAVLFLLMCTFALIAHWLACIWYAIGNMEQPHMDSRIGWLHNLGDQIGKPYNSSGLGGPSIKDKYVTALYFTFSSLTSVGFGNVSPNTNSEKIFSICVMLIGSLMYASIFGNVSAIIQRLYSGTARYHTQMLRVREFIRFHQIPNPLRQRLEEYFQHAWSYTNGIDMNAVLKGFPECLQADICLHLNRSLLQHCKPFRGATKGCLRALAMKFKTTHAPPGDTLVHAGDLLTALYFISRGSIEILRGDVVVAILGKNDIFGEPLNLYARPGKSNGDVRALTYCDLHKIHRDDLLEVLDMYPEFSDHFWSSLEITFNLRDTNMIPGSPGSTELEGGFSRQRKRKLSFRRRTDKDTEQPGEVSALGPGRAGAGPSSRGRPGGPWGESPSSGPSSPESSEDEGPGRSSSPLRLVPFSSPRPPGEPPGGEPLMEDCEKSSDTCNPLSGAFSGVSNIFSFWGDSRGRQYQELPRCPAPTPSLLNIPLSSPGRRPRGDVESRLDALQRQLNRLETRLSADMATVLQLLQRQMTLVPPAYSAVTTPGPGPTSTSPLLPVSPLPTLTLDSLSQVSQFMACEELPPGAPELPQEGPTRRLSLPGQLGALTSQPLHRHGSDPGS

[17] = target: T3, Cytochrome P450 3A4 (Homo sapiens, UniProt P08684); settings: Potency
T3 sequence (P08684 whole entry): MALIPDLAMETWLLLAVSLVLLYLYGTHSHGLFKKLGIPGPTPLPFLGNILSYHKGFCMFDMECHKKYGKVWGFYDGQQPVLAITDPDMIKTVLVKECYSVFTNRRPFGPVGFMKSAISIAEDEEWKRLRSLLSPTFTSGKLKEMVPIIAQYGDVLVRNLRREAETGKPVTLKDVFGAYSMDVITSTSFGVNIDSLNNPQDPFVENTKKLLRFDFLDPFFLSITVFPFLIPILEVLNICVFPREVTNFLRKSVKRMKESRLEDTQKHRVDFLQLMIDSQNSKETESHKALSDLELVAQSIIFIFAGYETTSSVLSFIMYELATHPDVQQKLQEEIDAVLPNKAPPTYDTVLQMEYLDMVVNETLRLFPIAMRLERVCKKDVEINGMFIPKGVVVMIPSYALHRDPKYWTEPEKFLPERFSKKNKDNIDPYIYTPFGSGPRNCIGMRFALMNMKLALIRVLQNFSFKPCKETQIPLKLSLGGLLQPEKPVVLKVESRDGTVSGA

[18] = target: T4, Rac GTPase-activating protein 1 (Homo sapiens, UniProt Q9H0H5); experiment: blockers of MgcRacGAP-driven Rac1 GTP hydrolysis – biochemical, ADP Hunter fluorescence, primary and confirmatory, confirmation (AID 624330); assay type: functional
T4 sequence (Q9H0H5 whole entry): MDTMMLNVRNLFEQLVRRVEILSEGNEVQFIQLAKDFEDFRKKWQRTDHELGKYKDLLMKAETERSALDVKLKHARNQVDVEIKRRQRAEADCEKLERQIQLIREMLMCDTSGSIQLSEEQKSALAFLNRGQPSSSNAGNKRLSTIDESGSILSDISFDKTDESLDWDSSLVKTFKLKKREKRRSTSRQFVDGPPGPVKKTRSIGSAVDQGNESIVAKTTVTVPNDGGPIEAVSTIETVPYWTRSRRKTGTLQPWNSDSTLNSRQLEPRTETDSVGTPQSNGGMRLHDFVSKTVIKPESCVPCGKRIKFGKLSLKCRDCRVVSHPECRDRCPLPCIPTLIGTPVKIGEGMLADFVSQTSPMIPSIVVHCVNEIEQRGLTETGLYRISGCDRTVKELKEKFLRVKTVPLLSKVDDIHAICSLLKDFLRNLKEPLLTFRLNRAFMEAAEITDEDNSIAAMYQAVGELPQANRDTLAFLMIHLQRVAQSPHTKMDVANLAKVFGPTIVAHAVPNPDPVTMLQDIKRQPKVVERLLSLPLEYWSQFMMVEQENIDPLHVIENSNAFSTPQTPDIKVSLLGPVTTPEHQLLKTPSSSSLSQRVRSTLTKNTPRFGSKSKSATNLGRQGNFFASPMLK

[19] = target: T5, Corticotropin-releasing factor receptor 2/Corticotropin-releasing factor-binding protein (Homo sapiens, UniProt P24387+Q13324); experiment: activators of CRF receptor 2 with binding protein – uHTS hits, confirmation (AID 602473); assay type: functional; settings: read-out: EC50_Mean
T5 sequence (Q13324 whole entry): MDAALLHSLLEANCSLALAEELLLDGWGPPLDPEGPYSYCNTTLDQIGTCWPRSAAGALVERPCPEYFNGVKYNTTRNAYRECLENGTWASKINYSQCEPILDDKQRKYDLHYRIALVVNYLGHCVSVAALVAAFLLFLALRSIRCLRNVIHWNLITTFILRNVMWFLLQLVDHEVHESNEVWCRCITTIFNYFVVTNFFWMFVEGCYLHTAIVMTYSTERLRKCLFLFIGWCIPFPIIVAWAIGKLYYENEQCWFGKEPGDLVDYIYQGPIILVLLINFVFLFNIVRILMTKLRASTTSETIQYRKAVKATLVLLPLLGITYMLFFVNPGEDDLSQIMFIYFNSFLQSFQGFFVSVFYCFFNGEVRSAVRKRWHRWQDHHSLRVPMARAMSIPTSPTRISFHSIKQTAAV
T5 sequence (P24387 whole entry): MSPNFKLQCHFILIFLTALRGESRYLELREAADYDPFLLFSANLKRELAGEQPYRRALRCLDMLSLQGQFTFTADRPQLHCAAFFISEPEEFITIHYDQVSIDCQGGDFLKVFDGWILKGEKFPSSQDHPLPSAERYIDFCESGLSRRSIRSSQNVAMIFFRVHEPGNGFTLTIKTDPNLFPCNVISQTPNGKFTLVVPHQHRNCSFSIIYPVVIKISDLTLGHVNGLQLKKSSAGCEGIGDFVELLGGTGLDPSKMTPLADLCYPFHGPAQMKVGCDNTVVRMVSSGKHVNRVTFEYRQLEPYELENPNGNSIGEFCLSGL

[20] = viability loss in HeLa cells – cytotoxicity control for MgcRacGAP inhibitor project, dose response (AID 624300); assay type: functional
[21] = target: 26S proteasome non-ATPase regulatory subunit 14 (Homo sapiens, UniProt O00487); experiment: inhibition of proteasome subunit RPN11 – biochemical, fluorescence polarization, uHTS hits, confirmation (AID 602368); assay type: functional
26S proteasome non-ATPase regulatory subunit 14, sequence (O00487 whole entry): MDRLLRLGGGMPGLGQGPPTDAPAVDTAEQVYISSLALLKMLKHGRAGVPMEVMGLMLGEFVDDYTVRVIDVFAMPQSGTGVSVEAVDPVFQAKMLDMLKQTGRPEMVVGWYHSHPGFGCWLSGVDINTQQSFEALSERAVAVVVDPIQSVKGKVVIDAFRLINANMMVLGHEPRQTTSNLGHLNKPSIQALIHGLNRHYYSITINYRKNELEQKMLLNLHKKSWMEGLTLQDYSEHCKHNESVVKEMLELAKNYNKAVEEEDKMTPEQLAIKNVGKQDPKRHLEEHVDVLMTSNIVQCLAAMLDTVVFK

[22] = target: Prothrombin (Bos taurus, UniProt P00735); experiment: thrombin protease inhibitors – biochemical, fluorescence polarization, uHTS hits, dose response (AID 602369); assay type: functional
[23] = target: 72 kDa type IV collagenase (Homo sapiens, UniProt P08253); experiment: Dose Response validation of uHTS RPN11 inhibitor hits using a MMP-2 Fluorescence assay.; assay type: functional
72 kDa type IV collagenase, sequence (P08253 whole entry): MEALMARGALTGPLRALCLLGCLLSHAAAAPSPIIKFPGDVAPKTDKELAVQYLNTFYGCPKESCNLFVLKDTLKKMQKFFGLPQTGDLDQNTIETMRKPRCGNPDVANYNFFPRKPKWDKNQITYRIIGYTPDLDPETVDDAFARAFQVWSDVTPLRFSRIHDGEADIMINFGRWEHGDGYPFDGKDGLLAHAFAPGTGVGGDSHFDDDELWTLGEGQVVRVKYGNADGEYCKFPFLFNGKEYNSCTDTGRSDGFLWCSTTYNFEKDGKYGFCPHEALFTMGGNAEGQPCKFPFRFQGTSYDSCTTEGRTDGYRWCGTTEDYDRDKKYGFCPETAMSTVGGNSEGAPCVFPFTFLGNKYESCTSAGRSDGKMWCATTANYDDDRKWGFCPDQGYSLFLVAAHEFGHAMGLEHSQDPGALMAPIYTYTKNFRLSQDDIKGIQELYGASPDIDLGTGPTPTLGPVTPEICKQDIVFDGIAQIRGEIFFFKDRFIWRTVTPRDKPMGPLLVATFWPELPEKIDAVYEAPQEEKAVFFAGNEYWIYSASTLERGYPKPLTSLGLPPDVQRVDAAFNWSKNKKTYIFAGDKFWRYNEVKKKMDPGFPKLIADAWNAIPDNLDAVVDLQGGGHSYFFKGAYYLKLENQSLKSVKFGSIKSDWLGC

[24] = target: Dual specificity tyrosine-phosphorylation-regulated kinase 1A (Rattus norvegicus, UniProt Q63470); assay type: biochemical, Homo sapiens
[25] = cells; assay type: functional, cell-based
[26] = cells; assay type: functional, cell-based; remark: listed apart in the source
[27] = P. falciparum Dd2 growth inhibitors, dose response, SYBR Green, cherry-picked samples (AID 1159567); assay type: functional, cell-based
[28] = target: Cytochrome P450 2C9 (Homo sapiens, UniProt P11712)
[29] = target: T3, Cytochrome P450 3A4
[30] = target: Cytochrome P450 2D6 (Homo sapiens, UniProt P10635);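 also: CYP2D6 member of a cytochrome P450 panel assay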
Cytochrome P450 2D6, sequence (P10635 whole entry): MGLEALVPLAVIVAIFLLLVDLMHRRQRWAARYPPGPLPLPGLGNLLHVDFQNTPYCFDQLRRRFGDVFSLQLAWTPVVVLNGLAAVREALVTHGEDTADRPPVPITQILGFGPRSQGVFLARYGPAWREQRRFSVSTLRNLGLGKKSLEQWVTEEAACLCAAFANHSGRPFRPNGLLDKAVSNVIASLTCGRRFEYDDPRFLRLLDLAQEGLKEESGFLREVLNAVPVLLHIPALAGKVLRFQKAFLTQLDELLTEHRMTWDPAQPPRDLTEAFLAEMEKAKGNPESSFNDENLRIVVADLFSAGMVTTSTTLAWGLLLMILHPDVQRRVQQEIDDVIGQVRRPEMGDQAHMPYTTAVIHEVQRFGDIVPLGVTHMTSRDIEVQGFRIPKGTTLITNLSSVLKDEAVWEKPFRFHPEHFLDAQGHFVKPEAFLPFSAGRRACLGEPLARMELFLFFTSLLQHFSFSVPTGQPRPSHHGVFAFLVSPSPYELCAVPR

[31] = HEK-293T viability loss after treatment – luminescence, T-cell screen hits, cytotoxicity control for TCR NF-kB inhibitor project, dose response (AID 489026); assay type: functional, cell-based;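 also: cells exposed to compound about 14 hours before the viability readout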
[32] = target: Large T antigen (Simian virus 40, UniProt P03070); assay type: functional, Betapolyomavirus macacae;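 also: Confirmatory-stage PubChem screen for compounds that inhibit SV40 T antigen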
Large T antigen, sequence (P03070 whole entry): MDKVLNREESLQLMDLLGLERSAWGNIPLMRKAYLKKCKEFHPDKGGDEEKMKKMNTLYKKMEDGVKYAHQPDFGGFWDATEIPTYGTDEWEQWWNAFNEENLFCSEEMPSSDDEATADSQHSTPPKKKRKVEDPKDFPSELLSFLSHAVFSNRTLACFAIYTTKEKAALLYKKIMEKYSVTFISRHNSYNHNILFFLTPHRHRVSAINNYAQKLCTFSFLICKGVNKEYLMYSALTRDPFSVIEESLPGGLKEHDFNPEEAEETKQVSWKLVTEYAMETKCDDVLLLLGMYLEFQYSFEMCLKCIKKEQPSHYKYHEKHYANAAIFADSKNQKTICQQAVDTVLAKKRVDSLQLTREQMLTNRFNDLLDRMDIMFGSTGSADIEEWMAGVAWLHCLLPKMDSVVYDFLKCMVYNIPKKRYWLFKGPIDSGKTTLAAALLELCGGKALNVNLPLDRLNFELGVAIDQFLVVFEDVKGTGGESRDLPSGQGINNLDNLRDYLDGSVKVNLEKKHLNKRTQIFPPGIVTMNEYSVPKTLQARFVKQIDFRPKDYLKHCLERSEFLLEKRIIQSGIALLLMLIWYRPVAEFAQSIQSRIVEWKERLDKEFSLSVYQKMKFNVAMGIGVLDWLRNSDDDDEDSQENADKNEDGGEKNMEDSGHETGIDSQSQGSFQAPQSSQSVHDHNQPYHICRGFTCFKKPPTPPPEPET

SMILES: CCn1c(/C=C/c2c[nH]c3ccccc23)nc2ccccc2c1=O
- AC50 [1]: 50.7 µM (active)

SMILES: c1ccc(-c2ccc(-c3cnc4n3CCCCC4)cc2)cc1
- AC50 [1]: 37.5 µM (active)

SMILES: O=C(Nc1ccc2c(c1)CCC2)c1c(F)cccc1Cl
- AC50 [1]: > 350 µM (inactive)

SMILES: COc1ccccc1C(=O)Nc1ccc2c(C)cc(=O)oc2c1
- AC50 [1]: 51.7 µM (active)

SMILES: Cc1ccc(OCCNC(=O)c2cc(-n3cnnc3)ccc2Cl)cc1C
- AC50 [2]: 28.2 µM (inconclusive)
- AC50 [3]: 51 µM (active)

SMILES: Fc1ccc(C2c3[nH]c4ccccc4c3CCN2Cc2cccn2-c2ncccn2)cc1 (configuration not stated)
- EC50 [4]: 13.1 µM (active)
- EC50 [5]: 1.7 µM (active)
- IC50 [6]: > 25 µM (active)
- IC50 [7]: 8.94 µM (active)
- IC50 [8]: 15.5 µM (active)
- CC50 [9]: 24 µM (active)
- EC50 [10]: > 60 µM (not active)
- EC50 [11]: > 120 µM (not active)
- EC50 [12]: 14.6 µM (active)
- IC50 [13]: 17.1 µM (active)

SMILES: FC(F)(F)c1cccnc1Oc1ccc(C2=NCCS2)cc1
- EC50 [14]: > 89.1 µM (inactive)

SMILES: N=c1c(-c2nc3ccccc3[nH]2)cc(C(=O)c2ccco2)nn1-c1ccccc1
- IC50 [15]: 16.8 µM (active)

SMILES: Cc1cc(-c2ccccc2)cc(-c2ccccc2)[n+]1C
- IC50 [15]: 5.02 µM (active)

SMILES: Cc1cccc(N=C(S)Nc2ccc(Oc3ccccc3)cc2)n1
- IC50 [8]: 16.8 µM (active)
- IC50 [13]: 22.5 µM (inactive)

SMILES: CCCCOCCOP(=O)(OCCOCCCC)OCCOCCCC
- AC50 [16]: 50.1 µM (inconclusive)
- AC50 [17]: 25.1 µM (inconclusive)

SMILES: Cc1cccc2c1N(CCOc1ccc(C(C)(C)C)cc1)C(=O)C2=O
- IC50 [8]: 4.75 µM (active)
- IC50 [13]: 5.76 µM (active)

SMILES: O=C(Nc1ccc(O)cc1)c1c(O)nc2c(c1O)CCCC2
- AC50 [1]: 76 µM (active)

SMILES: COC(=O)C1CCc2c(ccc3c2CCCC3)C1=O (configuration not stated)
- AC50 [1]: > 350 µM (inactive)

SMILES: COc1cc2c3c(c1OC)Oc1ccc(cc1)C[C@H]1c4c(cc(OC)c(OC)c4Oc4ccc(cc4)C[C@@H]3N(C)CC2)CCN1C
- AC50 [3]: 25.2 µM (active)

SMILES: O=C1NC(=S)S/C1=C\c1cc(Cl)cc(Cl)c1O
- IC50 [18]: 65.4 µM (active)
- IC50 [8]: 14.8 µM (active)
- EC50 [19]: 7.19 µM (active)
- CC50 [20]: 100 µM (active)
- IC50 [13]: 3.47 µM (active)

SMILES: CC(C)(C)c1ccc(OCC2CO2)cc1 (configuration not stated)
- AC50 [16]: 12.6 µM (inconclusive)

SMILES: Cc1ccc(C(=O)Nc2ccc(C(=O)N/N=C/c3cccnc3)cc2)cc1
- IC50 [21]: 30.5 µM (active)
- IC50 [22]: > 100 µM (inactive)
- IC50 [23]: > 100 µM (inactive)

SMILES: COc1ccc2[nH]c(C(=O)N/N=C/c3ccccc3OC)cc2c1
- AC50 [24]: 2.17 µM (active)
- EC50 [25]: > 350 µM (not active)
- EC50 [26]: > 350 µM (not active)

SMILES: COc1ccc(C#Cc2ccc3c(c2)O[C@@H](CN(C)C(=O)Nc2cccc(OC)c2)[C@H](C)CN([C@@H](C)CO)S3(=O)=O)cc1
- IC50 [21]: 30.5 µM (active)
- IC50 [22]: 42.8 µM (active)
- AC50 [27]: 3.01 µM (active)
- IC50 [23]: > 100 µM (inactive)

SMILES: O=C(N[C@@H](Cc1ccccc1)C(=O)CCl)OCc1ccccc1
- AC50 [28]: 12.6 µM (inconclusive)
- AC50 [29]: 1.26 µM (inconclusive)
- AC50 [16]: 25.1 µM (inconclusive)
- AC50 [30]: 39.8 µM (inconclusive)
- IC50 [31]: > 80 µM (inactive)

SMILES: Oc1ccc(/C=N/n2c(S)nnc2COc2ccccc2)c(O)c1
- AC50 [24]: 0.796 µM (active)

SMILES: Cc1ccc(/N=c2\oc3cc(O)ccc3cc2C(N)=O)cc1
- AC50 [24]: 0.074 µM (active)
- EC50 [5]: 3.69 µM (active)
- EC50 [10]: > 60 µM (not active)
- IC50 [32]: 33.8 µM (active)

SMILES: CCCN(CCC)[C@@H]1CCc2cccc(O)c2C1
- AC50 [16]: 15.8 µM (inconclusive)

SMILES: O=C(O)C1C2CCC(O2)C1C(=O)O (configuration not stated)
- AC50 [16]: 1.26 µM (inconclusive)

SMILES: ClC(Cl)(Cl)C(Cl)(Cl)Cl [HEXACHLOROETHANE]
- AC50 [16]: 39.8 µM (inconclusive)
